# Laboratory results taken from ChEMBL document CHEMBL1201862, “PubChem BioAssay data set” (2004).
# “And” between values parts separate entries of the source, which are not always exact repeats. Equal values may be shown once.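 Briefly, cells in 96-well plates were exposed to five compound concentrations for 48 h, and endpoints were estimated by linear interpolation. Abbreviation: GI50, concentration required for 50% inhibition of growth.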 The source made the active and inactive calls. Rule as the data show it: active = GI50 up to about 1.1 µM and inactive = higher.
# How the values were obtained:
# Assay in all cases: growth of human tumour cells (NCI), 48 h
# KM-20L2 = tested on: KM-20L2
# XF498 = tested on: XF498
# LXFL 529 = tested on: LXFL 529
# RXF 631 = tested on: RXF 631
# M19-MEL = tested on: M19-MEL
# DMS-273 = tested on: DMS-273
# DMS-114 = tested on: DMS-114
# HOP-18 = tested on: HOP-18
# SNB-78 = tested on: SNB-78
Compound,GI50 (KM-20L2),GI50 (XF498),GI50 (LXFL 529),GI50 (RXF 631),GI50 (M19-MEL),GI50 (DMS-273),GI50 (DMS-114),GI50 (HOP-18),GI50 (SNB-78)
COc1ccc(Cc2cc(OC)c(OC)c(OC)c2)cc1O,51.6 µM (inactive),4.73 µM (inactive),0.82 µM (active),25.2 µM (inactive),0.0861 µM (active),0.0713 µM (active),0.127 µM (active),,
O=C1/C(=C/c2ccc(Cl)c(Cl)c2)CNC/C1=C\c1ccc(Cl)c(Cl)c1,7.4 µM (inactive),19.5 µM (inactive),3.97 µM (inactive),36.3 µM (inactive),22.3 µM (inactive),5.73 µM (inactive),,33.7 µM (inactive),> 57.4 µM (inactive)
CC1=C(C(=O)NCc2ccccc2)C(c2ccc(Cl)c(Cl)c2)C(C(=O)NCc2ccccc2)=C(C)N1,> 100 µM (inactive),> 100 µM (inactive),> 100 µM (inactive),,> 100 µM (inactive),> 100 µM (inactive),> 100 µM (inactive),,> 100 µM (inactive)
Cc1cccc(C)c1NC(=O)CCC(=O)/N=C(\N)NC#N,> 100 µM (inactive),> 100 µM (inactive),> 100 µM (inactive),> 100 µM (inactive),> 100 µM (inactive),,> 100 µM (inactive),> 100 µM (inactive),
COc1cc2c(c(OC)c1OC)-c1ccc(OC)c(=O)cc1C(NC(=O)COc1ccccc1)CC2 (configuration not stated),< 0.01 µM (active),< 0.0625 µM (active),< 0.01 µM (active),< 0.01 µM (active),< 0.01 µM (active),< 0.01 µM (active),< 0.01 µM (active),> 100 µM (inactive),< 0.01 µM (active)
O=C1C2C(C(=O)N1c1ccccc1)C1([N+](=O)[O-])C=C3c4ccccc4N(C(=O)c4ccccc4)C32C2C(=O)N(c3ccccc3)C(=O)C21 (configuration not stated),,> 100 µM (inactive),> 100 µM (inactive),> 100 µM (inactive),> 100 µM (inactive),> 100 µM (inactive),> 100 µM (inactive),,> 100 µM (inactive)
CN1C(=O)C(=CN(C)c2ccccc2)C(=O)N(C)C1=O,> 100 µM (inactive),> 100 µM (inactive),> 100 µM (inactive),,49.2 µM (inactive),> 100 µM (inactive),57.7 µM (inactive),69.8 µM (inactive),> 100 µM (inactive)
CC1CCCC(C(O)CC2CC(=O)N(c3ccccc3)C(=O)C2)C1=O (configuration not stated),> 100 µM (inactive),,> 100 µM (inactive),,> 100 µM (inactive),> 100 µM (inactive),> 100 µM (inactive),> 100 µM (inactive),> 100 µM (inactive)
C\C=C/C=C/C=C/C(=O)O,> 100 µM (inactive),,> 100 µM (inactive),,,> 100 µM (inactive),> 100 µM (inactive),> 100 µM (inactive),> 100 µM (inactive)
COc1c(O)c2c3c(c(C)cc(O)c3c1O)C(=O)C(O)(C(C)(C)C(C)=O)C2=O (configuration not stated),> 100 µM (inactive),> 100 µM (inactive),> 100 µM (inactive),,14.7 µM (inactive) and 18.4 µM (inactive),> 100 µM (inactive),,> 100 µM (inactive),71.8 µM (inactive)
O=[N+]([O-])c1ccc(-n2nnc(C3=NCCN3)c2-c2ccccc2)cc1,> 100 µM (inactive),> 100 µM (inactive),> 100 µM (inactive),,> 100 µM (inactive),> 100 µM (inactive),> 100 µM (inactive),> 100 µM (inactive),> 100 µM (inactive)
N#CC1=C(Cl)NC(Cl)=C(C#N)C1c1ccc(Cl)cc1,24.6 µM (inactive),14.1 µM (inactive),16.4 µM (inactive),13 µM (inactive),,17.1 µM (inactive),15.2 µM (inactive),17.6 µM (inactive),25.9 µM (inactive)
COC(=O)c1c[nH]c2nc(N3CCOCC3)nn2c1=O,> 100 µM (inactive),,,,> 100 µM (inactive),> 100 µM (inactive),> 100 µM (inactive),,> 100 µM (inactive)
CC1=C(CC2C(=O)N(c3ccccc3)S(=O)(=O)NC2C)C(=O)N(c2ccccc2)S(=O)(=O)N1C (configuration not stated),> 100 µM (inactive),> 100 µM (inactive),> 100 µM (inactive),> 100 µM (inactive),> 100 µM (inactive),> 100 µM (inactive),> 100 µM (inactive),,> 100 µM (inactive)
CCOc1ccccc1NC(=O)C1=C(C)NC(C)=C(C(=O)Nc2ccccc2OCC)C1c1cccc([N+](=O)[O-])c1,89.1 µM (inactive),17.7 µM (inactive),24 µM (inactive),,> 100 µM (inactive),72.1 µM (inactive),46.3 µM (inactive),,23.5 µM (inactive)
CC(=O)CC(=O)N(CCN(C(=O)CC(C)=O)c1ccccc1)c1ccccc1,> 100 µM (inactive),> 100 µM (inactive),> 100 µM (inactive),,> 100 µM (inactive),,> 100 µM (inactive),> 100 µM (inactive),> 100 µM (inactive)
CC1(O)CC2C(CC1SC1CC3C(CC1(C)O)C3(C)C)C2(C)C (configuration not stated),,35.1 µM (inactive),52.2 µM (inactive),,24.9 µM (inactive),41.5 µM (inactive),48.5 µM (inactive),35.2 µM (inactive),73.3 µM (inactive)
COc1cc2c(cc1OC)C1c3ccccc3C(C#N)(C2)N(C(=O)c2ccccc2)C1O (configuration not stated),82.4 µM (inactive),24.8 µM (inactive),46.6 µM (inactive),> 100 µM (inactive),> 100 µM (inactive),29.6 µM (inactive),41.2 µM (inactive),> 100 µM (inactive),37.1 µM (inactive)
CC(C)N(C(=O)C12C3C4C1C1C2C3C41I)C(C)C (configuration not stated),,> 100 µM (inactive),> 100 µM (inactive),> 100 µM (inactive),> 100 µM (inactive),> 100 µM (inactive),> 100 µM (inactive),,> 100 µM (inactive)
COC(=O)C1=C(O)c2cc3c(cc2[C@H](c2cc(OC)c(OC)c(OC)c2)C1)OCO3,25.3 µM (inactive),25.9 µM (inactive),37.8 µM (inactive),54.7 µM (inactive),0.478 µM (active),28.6 µM (inactive),41.2 µM (inactive),> 100 µM (inactive),87.1 µM (inactive)
COc1ccc(C2ON(c3cccc(C)n3)CC=C2C)cc1 (configuration not stated),47.1 µM (inactive),38.3 µM (inactive),37.2 µM (inactive),48.2 µM (inactive),34.6 µM (inactive),26.1 µM (inactive),40.7 µM (inactive),> 100 µM (inactive),37.4 µM (inactive)
CC1(Cl)CC(C)(/C=C/Cl)C(Cl)CC1Cl (configuration not stated),13.2 µM (inactive),14.4 µM (inactive),14.7 µM (inactive),12.8 µM (inactive),18.7 µM (inactive),,,,20.9 µM (inactive)
COC(=O)[C@@]12C(=O)C=CC(=O)[C@@H]1C1C(=CC2COC(C)=O)O[C@@H]2OC3(CCCCC3)O[C@H]12 (some centres not stated),15.2 µM (inactive),13.2 µM (inactive),4.28 µM (inactive),21.9 µM (inactive),15.5 µM (inactive),8.61 µM (inactive),4.92 µM (inactive),10.3 µM (inactive),21.5 µM (inactive)
CC1=CCCC2C(C=O)(C1)CC(C)C2(CO)CC/C(=C/CO)CO (configuration not stated),,,79.3 µM (inactive),> 100 µM (inactive),> 100 µM (inactive),> 100 µM (inactive),> 100 µM (inactive),> 100 µM (inactive),> 100 µM (inactive)
Cc1c(C(=O)/C=C/c2ccccc2)[n+]([O-])c2ccccc2[n+]1[O-],18 µM (inactive),11.9 µM (inactive),13 µM (inactive),,15.7 µM (inactive),15.8 µM (inactive),10.2 µM (inactive),18.7 µM (inactive),34.3 µM (inactive)
